# In patent US20190209650A1, “METHOD TO IMPROVE THE EFFECTIVENESS OF ANTI-CANCER THERAPIES BY EXPOSING CANCER CELLS TO AN INFLAMMATORY STIMULUS PRIOR TO TREATMENT” (priority 2016, published 2019):
# Tested on: SW620 colorectal cancer cell line
# Assay: Flow cytometry of EpCAM positive cells and cancer stem cell (CD44+CD133-) subpopulation after incubation with cytokines
# Type: cell-based, human
# Conditions: for % Gated, R4 (CD44FITC, CD133 PE) / % Total, R4 (CD44FITC, CD133 PE): population R4 & R14 & R2 & R1; for % Gated, R5 (CD44FITC, CD133 PE) / % Total, R5 (CD44FITC, CD133 PE): population R5 & R14 & R2 & R1; for % Gated, R6 (CD44FITC, CD133 PE) / % Total, R6 (CD44FITC, CD133 PE): population R6 & R14 & R2 & R1; for % Gated, R7 Cancer Stem Cell (CSC) (CD44+CD133-) / % Total, R7 Cancer Stem Cell (CSC) (CD44+CD133-): population R7 & R14 & R2 & R1; for % Gated, R8 (CD44FITC, EpCAMefluor710) / % Total, R8 (CD44FITC, EpCAMefluor710): population R8 & R14 & R2 & R1; for % Gated, R9 EpCAM positive Cells (CD44FITC, EpCAMefluor710) / % Total, R9 EpCAM positive Cells (CD44FITC, EpCAMefluor710): population R9 & R14 & R2 & R1; for % Gated, R10 EpCAM positive Cells (CD44FITC, EpCAMefluor710) / % Total, R10 EpCAM positive Cells (CD44FITC, EpCAMefluor710): population R10 & R14 & R2 & R1; for % Gated, R11 (CD44FITC, EpCAMefluor710) / % Total, R11 (CD44FITC, EpCAMefluor710): population R11 & R14 & R2 & R1
# Protocol: This number returned to near baseline 21% at 48 hours. […] This change was transient, occurring within 24 hours and rapidly returning to baseline.
# The data from the scatter plots of FIGS. 1A-1H, 2A-2H, and 3A-3H are reproduced below in Tables 1-3.
# Based on the above data of potentiating the effectiveness of chemotherapy by exposing cancer cells to specific cytokines such as HGF and or Il-6 within a time limited fashion, the mechanism behind this ability to sensitize cancer cells may not simply be triggering cellular proliferation. Specific cytokine exposures can transiently cause a cancer cell population to differentiate away from a more stem cell enriched, mesenchymal phenotype towards a more differentiated, epithelial cell population more sensitive to the effects of anti-cancer therapies (see Tables 1-3).
# In particular, exposure to a control population of SW620 colorectal cancer cell line to HGF at a concentration of 10 ng per ml for 24 hours caused the control putative stem cell population (CD44+/CD133−) to drop from 33% at baseline (see Table 1, R7 region, CD 44 positive/CD133 negative) to 1% (see Table 2, R7, region CD 44 positive/CD133 negative). This drop was transient, as exposure to the same cell line for 48 hours of HGF at 10 ng per ml transitioned the phenotypic distribution back towards a stem cell enriched phenotype with 23% putative stem cells (see Table 3, R7 region, CD 44 positive/CD133 negative).
substance,measurement,setting,value
IL8: cytokine treatment IL8 in Tables 1-3,"% Gated, R4 (CD44FITC, CD133 PE)",0 hour incubation,48.9%
same,"% Total, R4 (CD44FITC, CD133 PE)",0 hour incubation,40.9%
same,"% Gated, R5 (CD44FITC, CD133 PE)",0 hour incubation,3.58%
same,"% Total, R5 (CD44FITC, CD133 PE)",0 hour incubation,2.99%
same,"% Gated, R6 (CD44FITC, CD133 PE)",0 hour incubation,14.3%
same,"% Total, R6 (CD44FITC, CD133 PE)",0 hour incubation,12%
same,"% Gated, R7 Cancer Stem Cell (CSC) (CD44+CD133-)",0 hour incubation,33.5%
same,"% Total, R7 Cancer Stem Cell (CSC) (CD44+CD133-)",0 hour incubation,28%
same,"% Gated, R8 (CD44FITC, EpCAMefluor710)",0 hour incubation,3.84%
same,"% Total, R8 (CD44FITC, EpCAMefluor710)",0 hour incubation,3.21%
same,"% Gated, R9 EpCAM positive Cells (CD44FITC, EpCAMefluor710)",0 hour incubation,55%
same,"% Total, R9 EpCAM positive Cells (CD44FITC, EpCAMefluor710)",0 hour incubation,46%
same,"% Gated, R10 EpCAM positive Cells (CD44FITC, EpCAMefluor710)",0 hour incubation,38.9%
same,"% Total, R10 EpCAM positive Cells (CD44FITC, EpCAMefluor710)",0 hour incubation,32.6%
same,"% Gated, R11 (CD44FITC, EpCAMefluor710)",0 hour incubation,1.92%
same,"% Total, R11 (CD44FITC, EpCAMefluor710)",0 hour incubation,1.6%
same,"% Gated, R4 (CD44FITC, CD133 PE)",24 h incubation,36.8%
same,"% Total, R4 (CD44FITC, CD133 PE)",24 h incubation,30%
same,"% Gated, R5 (CD44FITC, CD133 PE)",24 h incubation,7.29%
same,"% Total, R5 (CD44FITC, CD133 PE)",24 h incubation,5.93%
same,"% Gated, R6 (CD44FITC, CD133 PE)",24 h incubation,30.9%
same,"% Total, R6 (CD44FITC, CD133 PE)",24 h incubation,25.2%
same,"% Gated, R7 Cancer Stem Cell (CSC) (CD44+CD133-)",24 h incubation,24.5%
same,"% Total, R7 Cancer Stem Cell (CSC) (CD44+CD133-)",24 h incubation,19.9%
same,"% Gated, R8 (CD44FITC, EpCAMefluor710)",24 h incubation,1.98%
same,"% Total, R8 (CD44FITC, EpCAMefluor710)",24 h incubation,1.61%
same,"% Gated, R9 EpCAM positive Cells (CD44FITC, EpCAMefluor710)",24 h incubation,48.4%
same,"% Total, R9 EpCAM positive Cells (CD44FITC, EpCAMefluor710)",24 h incubation,39.4%
same,"% Gated, R10 EpCAM positive Cells (CD44FITC, EpCAMefluor710)",24 h incubation,50.1%
same,"% Total, R10 EpCAM positive Cells (CD44FITC, EpCAMefluor710)",24 h incubation,40.6%
same,"% Gated, R11 (CD44FITC, EpCAMefluor710)",24 h incubation,0.34%
same,"% Total, R11 (CD44FITC, EpCAMefluor710)",24 h incubation,0.27%
same,"% Gated, R4 (CD44FITC, CD133 PE)",48 h incubation,38.5%
same,"% Total, R4 (CD44FITC, CD133 PE)",48 h incubation,35.8%
same,"% Gated, R5 (CD44FITC, CD133 PE)",48 h incubation,6.8%
same,"% Total, R5 (CD44FITC, CD133 PE)",48 h incubation,6.32%
same,"% Gated, R6 (CD44FITC, CD133 PE)",48 h incubation,28.5%
same,"% Total, R6 (CD44FITC, CD133 PE)",48 h incubation,26.5%
same,"% Gated, R7 Cancer Stem Cell (CSC) (CD44+CD133-)",48 h incubation,26.8%
same,"% Total, R7 Cancer Stem Cell (CSC) (CD44+CD133-)",48 h incubation,24.9%
same,"% Gated, R8 (CD44FITC, EpCAMefluor710)",48 h incubation,23.1%
same,"% Total, R8 (CD44FITC, EpCAMefluor710)",48 h incubation,21.5%
same,"% Gated, R9 EpCAM positive Cells (CD44FITC, EpCAMefluor710)",48 h incubation,31%
same,"% Total, R9 EpCAM positive Cells (CD44FITC, EpCAMefluor710)",48 h incubation,28.8%
same,"% Gated, R10 EpCAM positive Cells (CD44FITC, EpCAMefluor710)",48 h incubation,25.4%
same,"% Total, R10 EpCAM positive Cells (CD44FITC, EpCAMefluor710)",48 h incubation,23.6%
same,"% Gated, R11 (CD44FITC, EpCAMefluor710)",48 h incubation,21.4%
same,"% Total, R11 (CD44FITC, EpCAMefluor710)",48 h incubation,19.9%
PDGF Beta: Platelet derived growth factor BB,"% Gated, R4 (CD44FITC, CD133 PE)",0 hour incubation,49.7%
same,"% Total, R4 (CD44FITC, CD133 PE)",0 hour incubation,46.5%
same,"% Gated, R5 (CD44FITC, CD133 PE)",0 hour incubation,2.45%
same,"% Total, R5 (CD44FITC, CD133 PE)",0 hour incubation,2.29%
same,"% Gated, R6 (CD44FITC, CD133 PE)",0 hour incubation,10.7%
same,"% Total, R6 (CD44FITC, CD133 PE)",0 hour incubation,9.97%
same,"% Gated, R7 Cancer Stem Cell (CSC) (CD44+CD133-)",0 hour incubation,37.3%
same,"% Total, R7 Cancer Stem Cell (CSC) (CD44+CD133-)",0 hour incubation,34.9%
same,"% Gated, R8 (CD44FITC, EpCAMefluor710)",0 hour incubation,4.94%
same,"% Total, R8 (CD44FITC, EpCAMefluor710)",0 hour incubation,4.62%
same,"% Gated, R9 EpCAM positive Cells (CD44FITC, EpCAMefluor710)",0 hour incubation,53.5%
same,"% Total, R9 EpCAM positive Cells (CD44FITC, EpCAMefluor710)",0 hour incubation,50%
same,"% Gated, R10 EpCAM positive Cells (CD44FITC, EpCAMefluor710)",0 hour incubation,38.8%
same,"% Total, R10 EpCAM positive Cells (CD44FITC, EpCAMefluor710)",0 hour incubation,36.3%
same,"% Gated, R11 (CD44FITC, EpCAMefluor710)",0 hour incubation,2.33%
same,"% Total, R11 (CD44FITC, EpCAMefluor710)",0 hour incubation,2.18%
same,"% Gated, R4 (CD44FITC, CD133 PE)",24 h incubation,36.2%
same,"% Total, R4 (CD44FITC, CD133 PE)",24 h incubation,32.4%
same,"% Gated, R5 (CD44FITC, CD133 PE)",24 h incubation,8.6%
same,"% Total, R5 (CD44FITC, CD133 PE)",24 h incubation,7.7%
same,"% Gated, R6 (CD44FITC, CD133 PE)",24 h incubation,32.2%
same,"% Total, R6 (CD44FITC, CD133 PE)",24 h incubation,28.8%
same,"% Gated, R7 Cancer Stem Cell (CSC) (CD44+CD133-)",24 h incubation,22.6%
same,"% Total, R7 Cancer Stem Cell (CSC) (CD44+CD133-)",24 h incubation,20.3%
same,"% Gated, R8 (CD44FITC, EpCAMefluor710)",24 h incubation,4.94%
same,"% Total, R8 (CD44FITC, EpCAMefluor710)",24 h incubation,4.42%
same,"% Gated, R9 EpCAM positive Cells (CD44FITC, EpCAMefluor710)",24 h incubation,45.3%
same,"% Total, R9 EpCAM positive Cells (CD44FITC, EpCAMefluor710)",24 h incubation,40.6%
same,"% Gated, R10 EpCAM positive Cells (CD44FITC, EpCAMefluor710)",24 h incubation,47.4%
same,"% Total, R10 EpCAM positive Cells (CD44FITC, EpCAMefluor710)",24 h incubation,42.5%
same,"% Gated, R11 (CD44FITC, EpCAMefluor710)",24 h incubation,3.22%
same,"% Total, R11 (CD44FITC, EpCAMefluor710)",24 h incubation,2.88%
same,"% Gated, R4 (CD44FITC, CD133 PE)",48 h incubation,40.1%
same,"% Total, R4 (CD44FITC, CD133 PE)",48 h incubation,27.6%
same,"% Gated, R5 (CD44FITC, CD133 PE)",48 h incubation,7.5%
same,"% Total, R5 (CD44FITC, CD133 PE)",48 h incubation,5.16%
same,"% Gated, R6 (CD44FITC, CD133 PE)",48 h incubation,27.4%
same,"% Total, R6 (CD44FITC, CD133 PE)",48 h incubation,18.9%
same,"% Gated, R7 Cancer Stem Cell (CSC) (CD44+CD133-)",48 h incubation,25.6%
same,"% Total, R7 Cancer Stem Cell (CSC) (CD44+CD133-)",48 h incubation,17.6%
same,"% Gated, R8 (CD44FITC, EpCAMefluor710)",48 h incubation,24.4%
same,"% Total, R8 (CD44FITC, EpCAMefluor710)",48 h incubation,16.8%
same,"% Gated, R9 EpCAM positive Cells (CD44FITC, EpCAMefluor710)",48 h incubation,31.8%
same,"% Total, R9 EpCAM positive Cells (CD44FITC, EpCAMefluor710)",48 h incubation,21.9%
same,"% Gated, R10 EpCAM positive Cells (CD44FITC, EpCAMefluor710)",48 h incubation,23.5%
same,"% Total, R10 EpCAM positive Cells (CD44FITC, EpCAMefluor710)",48 h incubation,16.2%
same,"% Gated, R11 (CD44FITC, EpCAMefluor710)",48 h incubation,21.1%
same,"% Total, R11 (CD44FITC, EpCAMefluor710)",48 h incubation,14.5%
